Test: xn = mol fraction of the nth substance listed
Conditions: 100 kPa, Liquid; for electrical conductivity: Alternating current cell with electrodes; for viscosity: Falling or rolling sphere viscometry; for mass density: Vibrating tube method

C[n+]1ccn(CCCC#N)c1.F[B-](F)(F)F [1-butyronitrile-3-methylimidazolium tetrafluoroborate] + CC#N
Conditions	electrical conductivity [S/m]	mass density [kg/m3]	viscosity [mPa·s]
288.15 K, x1 = 0.1004	3.71	951.03	1.783
288.15 K, x1 = 0.2003	2.62	1058.56	5.545
288.15 K, x1 = 0.3013	1.68	1131.24	13.17
288.15 K, x1 = 0.3996	1.05	1179.83	30.38
288.15 K, x1 = 0.4999	0.558	1218.22	72.81
288.15 K, x1 = 0.5996	0.365	1248.27	105.8
288.15 K, x1 = 0.7001	0.28	1271.85	150.9
288.15 K, x1 = 0.8024	0.157	1289.62	287
288.15 K, x1 = 0.8885	0.126	1302.35	372.8
288.15 K, x1 = 1	0.058	1316.07	590.6
293.15 K, x1 = 0.1004	3.98	946.91	1.645
293.15 K, x1 = 0.2003	2.89	1054.28	4.901
293.15 K, x1 = 0.3013	1.93	1126.73	11.15
293.15 K, x1 = 0.3996	1.24	1175.56	24.74
293.15 K, x1 = 0.4999	0.685	1214.12	56.55
293.15 K, x1 = 0.5996	0.467	1244.16	80.64
293.15 K, x1 = 0.7001	0.352	1268.21	113.9
293.15 K, x1 = 0.8024	0.208	1286.11	207.7
293.15 K, x1 = 0.8885	0.174	1298.72	266.5
293.15 K, x1 = 1	0.085	1312.33	417.9
298.15 K, x1 = 0.1004	4.28	942.92	1.52
298.15 K, x1 = 0.2003	3.2	1049.89	4.361
298.15 K, x1 = 0.3013	2.21	1122.41	9.572
298.15 K, x1 = 0.3996	1.46	1171.47	20.18
298.15 K, x1 = 0.4999	0.834	1210.15	45.13
298.15 K, x1 = 0.5996	0.588	1240.19	62.96
298.15 K, x1 = 0.7001	0.47	1264.41	87.6
298.15 K, x1 = 0.8024	0.286	1282.71	154.3
298.15 K, x1 = 0.8885	0.236	1294.92	195.6
298.15 K, x1 = 1	0.123	1308.61	302.6
303.15 K, x1 = 0.1004	4.56	938.82	1.412
303.15 K, x1 = 0.2003	3.51	1045.59	3.908
303.15 K, x1 = 0.3013	2.5	1117.84	8.303
303.15 K, x1 = 0.3996	1.7	1167.21	16.91
303.15 K, x1 = 0.4999	0.997	1205.98	36.59
303.15 K, x1 = 0.5996	0.719	1236.29	50.09
303.15 K, x1 = 0.7001	0.585	1260.73	68.7
303.15 K, x1 = 0.8024	0.372	1279.28	117.1
303.15 K, x1 = 0.8885	0.308	1291.38	147
303.15 K, x1 = 1	0.171	1304.81	223.3
308.15 K, x1 = 0.1004	4.84	934.73	1.315
308.15 K, x1 = 0.2003	3.83	1041.36	3.529
308.15 K, x1 = 0.3013	2.8	1113.43	7.266
308.15 K, x1 = 0.3996	1.97	1163.02	14.47
308.15 K, x1 = 0.4999	1.19	1201.89	30.15
308.15 K, x1 = 0.5996	0.87	1232.29	40.62
308.15 K, x1 = 0.7001	0.719	1257.04	54.9
308.15 K, x1 = 0.8024	0.475	1275.69	90.99
308.15 K, x1 = 0.8885	0.392	1287.73	112.9
308.15 K, x1 = 1	0.231	1301.05	169.9
313.15 K, x1 = 0.1004	5.13	930.78	1.228
313.15 K, x1 = 0.2003	4.16	1037.03	3.204
313.15 K, x1 = 0.3013	3.1	1109.04	6.436
313.15 K, x1 = 0.3996	2.27	1158.93	12.49
313.15 K, x1 = 0.4999	1.4	1197.89	25.23
313.15 K, x1 = 0.5996	1.04	1228.43	33.47
313.15 K, x1 = 0.7001	0.87	1253.43	44.63
313.15 K, x1 = 0.8024	0.599	1272.33	71.79
313.15 K, x1 = 0.8885	0.491	1284.14	88.12
313.15 K, x1 = 1	0.305	1297.32	128.7
318.15 K, x1 = 0.1004	5.41	926.61	1.153
318.15 K, x1 = 0.2003	4.49	1032.73	2.936
318.15 K, x1 = 0.3013	3.4	1104.71	5.741
318.15 K, x1 = 0.3996	2.59	1154.62	10.85
318.15 K, x1 = 0.4999	1.63	1193.83	21.38
318.15 K, x1 = 0.5996	1.22	1224.39	28
318.15 K, x1 = 0.7001	1.04	1249.69	36.82
318.15 K, x1 = 0.8024	0.734	1268.86	57.48
318.15 K, x1 = 0.8885	0.603	1280.51	70.08
318.15 K, x1 = 1	0.393	1293.59	100.6
323.15 K, x1 = 0.1004	5.69	922.4	1.084
323.15 K, x1 = 0.2003	4.82	1028.51	2.695
323.15 K, x1 = 0.3013	3.7	1100.31	5.152
323.15 K, x1 = 0.3996	2.95	1150.56	9.38
323.15 K, x1 = 0.4999	1.87	1189.85	17.96
323.15 K, x1 = 0.5996	1.42	1220.51	23.76
323.15 K, x1 = 0.7001	1.22	1245.99	30.77
323.15 K, x1 = 0.8024	0.872	1265.38	47.05
323.15 K, x1 = 0.8885	0.73	1276.87	56.76
323.15 K, x1 = 1	0.498	1289.86	79.82
